Where “and” joins values, the source holds several entries; their conditions need not be identical. Equal values may be shown once.
Experiments:
sGC enzyme = target: T1, sGC enzyme (Homo sapiens, UniProt Q02108+Q02153); test: cGMP GloSensor cell-based assay, 384-well format; details: HEK293 cells expressing GloSensor 40F cGMP; 10 μM DETA-NONOate; normalized to 30 μM Compound Y; compounds in Table IA; read-out: Glo-sensor AbsEC50
T1 construct: incorporated into these cells detect cGMP formed by the compounds stimulating the sGC enzyme; host or cells: HEK293 cells stably expressing GloSensor 40F cGMP biosensor
T1 sequence (Q02153 1-619): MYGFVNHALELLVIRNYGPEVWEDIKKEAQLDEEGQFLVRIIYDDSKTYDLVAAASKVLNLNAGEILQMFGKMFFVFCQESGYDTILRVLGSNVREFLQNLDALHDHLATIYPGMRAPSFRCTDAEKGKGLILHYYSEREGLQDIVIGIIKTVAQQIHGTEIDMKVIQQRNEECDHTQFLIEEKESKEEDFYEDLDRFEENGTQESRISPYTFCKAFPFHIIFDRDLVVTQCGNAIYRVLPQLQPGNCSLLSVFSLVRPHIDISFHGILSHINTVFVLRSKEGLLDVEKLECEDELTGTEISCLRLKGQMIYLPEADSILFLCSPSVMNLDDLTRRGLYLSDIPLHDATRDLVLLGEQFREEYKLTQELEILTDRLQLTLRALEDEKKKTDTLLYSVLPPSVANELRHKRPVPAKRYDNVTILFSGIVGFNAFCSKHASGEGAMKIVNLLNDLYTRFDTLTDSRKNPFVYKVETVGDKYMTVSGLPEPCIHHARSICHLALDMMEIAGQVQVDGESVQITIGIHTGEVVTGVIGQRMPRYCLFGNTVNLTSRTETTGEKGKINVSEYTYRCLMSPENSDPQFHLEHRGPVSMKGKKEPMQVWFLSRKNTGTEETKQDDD
T1 sequence (Q02108 1-690): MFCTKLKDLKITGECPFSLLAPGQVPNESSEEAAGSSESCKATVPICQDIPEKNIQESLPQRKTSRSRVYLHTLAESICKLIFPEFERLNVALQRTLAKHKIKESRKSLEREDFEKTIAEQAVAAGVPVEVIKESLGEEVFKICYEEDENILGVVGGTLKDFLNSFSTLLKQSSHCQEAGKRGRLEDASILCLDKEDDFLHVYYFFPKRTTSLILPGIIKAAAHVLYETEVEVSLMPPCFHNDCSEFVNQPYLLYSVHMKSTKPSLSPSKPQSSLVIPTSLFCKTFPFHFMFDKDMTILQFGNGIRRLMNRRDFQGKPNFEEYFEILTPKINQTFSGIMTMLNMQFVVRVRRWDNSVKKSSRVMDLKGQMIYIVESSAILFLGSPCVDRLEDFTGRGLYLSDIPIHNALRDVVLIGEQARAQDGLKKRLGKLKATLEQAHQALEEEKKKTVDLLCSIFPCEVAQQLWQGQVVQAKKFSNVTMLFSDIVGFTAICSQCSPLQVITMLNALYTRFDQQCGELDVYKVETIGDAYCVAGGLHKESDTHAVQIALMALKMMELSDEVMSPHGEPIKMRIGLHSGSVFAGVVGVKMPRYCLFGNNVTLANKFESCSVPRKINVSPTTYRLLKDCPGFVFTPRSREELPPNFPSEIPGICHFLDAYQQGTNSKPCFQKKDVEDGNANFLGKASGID
In short: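 HEK293 cells expressing GloSensor 40F cGMP luciferase biosensor, preloaded with 2 mM GloSensor substrate for 90 min at 25 °C. Endpoint luminescence read after 55 min compound incubation at room temperature.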

[1] = Rat cerebrospinal fluid (CSF) pharmacokinetic properties; assay type: in vivo; details: compounds in Table IA; for concentration at 1 h: CSF, male Sprague-Dawley rats, PO 10 mg/kg in PEG400, 1 h post-dosing, read-out: CSF Conc. (nM @ 1 h); for Kp uu at 1 h: male, Sprague-Dawley, CSF and plasma (unbound), unbound CSF/unbound plasma ratio, rats, PO 10 mg/kg
Experimental: PK in rats was determined following oral dosing. For the oral (PO) experiments, a group of 6 male Sprague-Dawley rats with an indwelling catheter placed in the cisterna magna were used. The PO group was dosed with 3 or 10 mg/kg of a compound formulated as a solution in PEG400. PO doses were administered by oral gavage and delivered to the stomach using a syringe and gavage tube. Following oral dosage administration, the gavage tube was flushed with approximately 0.5 mL of water to ensure complete delivery of the full dose.
Plasma and CSF samples were collected as follows: samples of CSF and blood were collected at 1 hour and 2 hours post-dosing. CSF samples (0.05 mL) were collected through the intracisternal catheter. Blood samples (0.25 mL) were collected through retro-orbital sampling. These samples were kept on ice until processed for plasma. Blood samples were centrifuged at 3200 rpm for 5 minutes at approximately 5° C. within 1 hour of collection. Plasma was directly transferred to a 96-well plate tube (0.125 mL). Plug caps were placed on the tubes and the tubes frozen at approximately −70° C. and stored until analysis.
Plasma was collected and analyzed for the presence of compound.
The compound in question and the internal standard were extracted from plasma and CSF by precipitation. Samples were analyzed using liquid chromatography (LC) with tandem mass spectrometric detection (MS/MS) using electrospray ionization. The standard curve range was from 1 to 1000 ng/mL. Results of the compounds described herein in this assay are illustrated in Tables 4A (for compounds in Table IA) and 4B (for compounds in Table IB) below.
Kp,uu is defined as the concentration ratio of unbound drug in CSF to unbound drug in plasma. Unbound drug in plasma (or free plasma concentration) is calculated by multiplying the total plasma concentration by the unbound fraction as determined by plasma protein binding. The CSF concentration is then divided by the free plasma concentration to determine the Kp,uu. (See e.g., Di et al., J. Med. Chem., 56, 2-12 (2013))

Row | SMILES | EC50 (sGC enzyme) | concentration at 1 h [1] [nM] | Kp uu at 1 h [1]
1 | FC(F)(F)c1n[nH]c(-c2nn(CCC(F)(F)C(F)(F)F)c3ncccc23)n1 [Compound I-2, 1-(3,3,4,4,4-pentafluorobutyl)-3-(3-(trifluoromethyl)-1H-1,2,4-triazol-5-yl)-1H-pyrazolo[3,4-b]pyridine] | 0.1 to 1 µM | 16.6 | 0.24
2 | FC(F)(F)c1n[nH]c(-c2nn(Cc3ccccc3)c3ncccc23)n1 [Compound I-49, 1-Benzyl-3-(3-(trifluoromethyl)-1H-1,2,4-triazol-5-yl)-1H-pyrazolo[3,4-b]pyridine] | < 0.1 µM | 172 | 1.57
3 | Fc1ccccc1Cc1nn(-c2nc(C(F)(F)F)n[nH]2)c2cccnc12 [Compound I-31, 3-(2-Fluorobenzyl)-1-(3-(trifluoromethyl)-1H-1,2,4-triazol-5-yl)-1H-pyrazolo[4,3-b]pyridine] | 0.1 to 1 µM | 66.6 | 3.84
4 | FC(F)(F)c1n[nH]c(-c2nn(Cc3cncnc3)c3ncccc23)n1 [Compound I-4, 1-(Pyrimidin-5-ylmethyl)-3-(3-(trifluoromethyl)-1H-1,2,4-triazol-5-yl)-1H-pyrazolo[3,4-b]pyridine] | < 0.1 µM | 79.5 | 1.98
5 | Fc1ccccc1Cc1nn(-c2nc(C(F)F)n[nH]2)c2cccnc12 [Compound I-101, 1-(3-(Difluoromethyl)-1H-1,2,4-triazol-5-yl)-3-(2-fluorobenzyl)-1H-pyrazolo[4,3-b]pyridine] | < 0.1 µM | 104 | 2.81
6 | N#Cc1n[nH]c(-c2nn(Cc3ccccc3F)c3ncccc23)n1 [Compound I-41] | < 0.1 µM | 26.6 | 0.36
7 | Fc1cccc(Cn2nc(-c3nc(C(F)(F)F)n[nH]3)c3cccnc32)c1F [Compound I-48, 1-(2,3-Difluorobenzyl)-3-(3-(trifluoromethyl)-1H-1,2,4-triazol-5-yl)-1H-pyrazolo[3,4-b]pyridine] | 0.1 to 1 µM and < 0.1 µM | 41.6 | 2.52
8 | Fc1cccc(Cn2nc(-c3nc(Cl)n[nH]3)c3cccnc32)c1F [Compound I-86, 3-(3-Chloro-1H-1,2,4-triazol-5-yl)-1-(2,3-difluorobenzyl)-1H-pyrazolo[3,4-b]pyridine] | < 0.1 µM | 31.5 | 2.41

Further lines, results first:

Row | EC50 (sGC enzyme) | concentration at 1 h [1] [nM] | Kp uu at 1 h [1] | SMILES
9 | < 0.1 µM | 21.5 | 1.54 | Fc1ccccc1Cn1nc(-c2nc(C3CC3(F)F)n[nH]2)c2cccnc21 (stereo not drawn) [Compound I-96, 3-(3-(2,2-Difluorocyclopropyl)-1H-1,2,4-triazol-5-yl)-1-(2-fluorobenzyl)-1H-pyrazolo[3,4-b]pyridine]
10 | < 0.1 µM | 17.4 | 2.2 | Fc1cccc(Cc2nn(-c3nc(C(F)(F)F)n[nH]3)c3cccnc23)c1F [Compound I-105, 3-(2,3-Difluorobenzyl)-1-(3-(trifluoromethyl)-1H-1,2,4-triazol-5-yl)-1H-pyrazolo[4,3-b]pyridine]
11 | < 0.1 µM | 13.1 | 0.54 | OCc1n[nH]c(-c2nn(Cc3ccccc3F)c3ncccc23)n1 [Compound I-64, (5-(1-(2-fluorobenzyl)-1H-pyrazolo[3,4-b]pyridin-3-yl)-1H-1,2,4-triazol-3-yl)methanol]
12 | < 0.1 µM | 83 | 0.62 | Cc1ncc(Cn2nc(-c3nc(C(F)(F)F)n[nH]3)c3ccccc32)cn1 [Compound I-62, 1-((2-methylpyrimidin-5-yl)methyl)-3-(3-(trifluoromethyl)-1H-1,2,4-triazol-5-yl)-1H-indazole]
